Experimental findings from patent US20240124408A1 (Sanofi, priority 2020, published 2024) are described below.

Common to all, as to format: cell-based
The target in experiment [1] is T1, human TRPM8 (Homo sapiens, UniProt Q7Z2W7).
T1 construct: expressed in transfected cells; host or cells: CHO (p658 mammalian expression vector)
Put plainly: In vitro human TRPM8 fluorescence calcium flux assay (recombinant CHO cells, Fluo4-AM, FDSS6000). Conditions: recombinant CHO cells expressing human TRPM8; menthol-related EC50, normalized to 100 μM menthol. An outline of the steps: (§1)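 Agonist EC50 values come from sixteen-point dose responses normalized to the 100 μM menthol maximum, fitted sigmoidally. Calcium rise was followed for 3 min post-addition in recombinant CHO lines (human or pig TRPM8). Cells were dye-loaded with 2 μM Fluo4-AM, 1 h at room temperature, probenecid-containing HBSS.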

For experiment [2], the target named is T2, pig TRPM8 (Sus scrofa, UniProt F1SM15).
T2 construct: expressed in transfected cells; host or cells: CHO (pcDNA5/FRT/TO vector; hygromycin B and blasticidin selection)
In words: In vitro pig TRPM8 automated patch-clamp assay (SyncroPatch 384PE, CHO cells). Conditions: CHO cells expressing pig TRPM8, 28° C. Here is the method:
(§2) In Vitro Pig and Human TRPM8 Automated Patch-Clamp Assays
(§3) Automated whole-cell recordings of compound effects were performed on the SyncroPatch 384PE (Nanion Technologies, Munich, Germany) incorporated into a Biomek FX pipetting robot (Beckman Coulter, Jersey City, NJ, USA) using the same engineered CHO cell lines expressing human or pig TRPM8 channels. Data acquisition and analysis were performed with the proprietary software PatchControl 384 and DataControl 384, respectively (Nanion Technologies, Munich, Germany). All recordings were carried out using planar borosilicate glass patch clamp chips in a 384-microtiter plate format with patch hole resistances of 2-4 MO. For recordings, standard intracellular solution was used containing (in mM): 130 KF, 4 NaCl, 1 MgCl2, 0.5 CaCl2, 10 HEPES and 10 EGTA/KOH (pH 7.2) and standard extracellular solution contained in mM: 150 NaCl, 4 KCl, 0.5 CaCl2, 1 MgCl2 and 10 HEPES (pH 7.3).
(§4) Prior to the electrophysiological measurements, cells were harvested using Accutase (GIBCO, Fisher Scientific) and resuspended in warmed extracellular solution. The cell suspension was kept in the dedicated cell reservoir at 28° C. at a 1 million/ml cell density and shaken at 500 rounds per min (rpm). Experiments were performed at 28° C. throughout. Cells were distributed in high resistance 4-holes-per-well Nanion chips where they were caught on the patch holes by application of a −80 mbar pressure. The cell membrane was ruptured to obtain the whole-cell configuration with a pressure pulse of −250 mbar for 2 seconds. Voltage protocols were constructed using PatchControl 384. The cells were held at a holding potential of −60 mV and TRPM8 currents were recorded using a ramp protocol from −80 to +80 mV every 5 seconds before and after compound addition. Resulting currents were recorded at both −80 and +80 mV and current kinetics were exported and analyzed. From each plate, control wells with 200 μM menthol were recorded to validate the assay. One concentration of compound was applied to each of the other wells. For each concentration, compound response was determined by subtracting the baseline current recorded before compound addition from the maximum peak elicited currents obtained after compound addition. Then, each compound response was normalized to control condition without compound and maximum current (Emax) obtained for each compound. Nanion DataControl 384 software plotted current response for each compound concentration and was able to calculate an EC50 value for each active compound.

Experiment [3] has as its target T2, pig TRPM8. In words: In vitro pig TRPM8 fluorescence calcium flux assay (recombinant CHO cells, Fluo4-AM, FDSS6000). Conditions: recombinant CHO cells expressing pig TRPM8; menthol-related EC50, normalized to 100 μM menthol. The essentials:
as §1

Experiment [4] addresses T1, human TRPM8. Put plainly: In vitro human TRPM8 automated patch-clamp assay (SyncroPatch 384PE, CHO cells). Conditions: CHO cells expressing human TRPM8, 28° C. Here is the method:
as §2, §3, §4
(In general: The patch-clamp technique gives a direct electrical read-out from membranes.)

SMILES strings stand for the structures.

T1 sequence (Q7Z2W7 whole entry): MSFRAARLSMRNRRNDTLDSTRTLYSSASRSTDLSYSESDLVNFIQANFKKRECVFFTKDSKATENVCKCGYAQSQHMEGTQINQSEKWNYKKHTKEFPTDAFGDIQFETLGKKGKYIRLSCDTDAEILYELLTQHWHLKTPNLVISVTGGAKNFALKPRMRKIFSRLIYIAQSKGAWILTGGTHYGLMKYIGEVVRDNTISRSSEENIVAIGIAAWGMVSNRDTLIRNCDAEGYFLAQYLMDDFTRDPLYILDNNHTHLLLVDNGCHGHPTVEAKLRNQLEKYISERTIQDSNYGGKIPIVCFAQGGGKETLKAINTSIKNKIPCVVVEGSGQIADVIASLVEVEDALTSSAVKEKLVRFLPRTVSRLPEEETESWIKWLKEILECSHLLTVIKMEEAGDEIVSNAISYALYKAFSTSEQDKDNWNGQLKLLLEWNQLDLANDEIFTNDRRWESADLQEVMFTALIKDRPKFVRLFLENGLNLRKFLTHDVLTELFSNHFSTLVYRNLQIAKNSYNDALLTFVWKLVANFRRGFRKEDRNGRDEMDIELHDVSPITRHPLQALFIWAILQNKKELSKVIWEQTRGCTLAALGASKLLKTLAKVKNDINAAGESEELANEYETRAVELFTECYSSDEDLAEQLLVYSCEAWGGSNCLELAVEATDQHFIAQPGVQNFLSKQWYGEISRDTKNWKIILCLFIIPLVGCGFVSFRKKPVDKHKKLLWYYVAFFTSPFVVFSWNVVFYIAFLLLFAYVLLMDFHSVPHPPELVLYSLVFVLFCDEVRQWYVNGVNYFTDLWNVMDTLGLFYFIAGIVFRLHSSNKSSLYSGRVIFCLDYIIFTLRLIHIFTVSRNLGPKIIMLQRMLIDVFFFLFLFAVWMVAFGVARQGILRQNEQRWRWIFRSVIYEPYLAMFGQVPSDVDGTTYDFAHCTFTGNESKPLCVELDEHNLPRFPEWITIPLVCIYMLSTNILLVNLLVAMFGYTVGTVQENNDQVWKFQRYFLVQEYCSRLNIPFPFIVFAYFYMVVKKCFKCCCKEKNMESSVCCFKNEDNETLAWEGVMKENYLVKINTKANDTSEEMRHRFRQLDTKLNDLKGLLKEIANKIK
T2 sequence (F1SM15 1-1104): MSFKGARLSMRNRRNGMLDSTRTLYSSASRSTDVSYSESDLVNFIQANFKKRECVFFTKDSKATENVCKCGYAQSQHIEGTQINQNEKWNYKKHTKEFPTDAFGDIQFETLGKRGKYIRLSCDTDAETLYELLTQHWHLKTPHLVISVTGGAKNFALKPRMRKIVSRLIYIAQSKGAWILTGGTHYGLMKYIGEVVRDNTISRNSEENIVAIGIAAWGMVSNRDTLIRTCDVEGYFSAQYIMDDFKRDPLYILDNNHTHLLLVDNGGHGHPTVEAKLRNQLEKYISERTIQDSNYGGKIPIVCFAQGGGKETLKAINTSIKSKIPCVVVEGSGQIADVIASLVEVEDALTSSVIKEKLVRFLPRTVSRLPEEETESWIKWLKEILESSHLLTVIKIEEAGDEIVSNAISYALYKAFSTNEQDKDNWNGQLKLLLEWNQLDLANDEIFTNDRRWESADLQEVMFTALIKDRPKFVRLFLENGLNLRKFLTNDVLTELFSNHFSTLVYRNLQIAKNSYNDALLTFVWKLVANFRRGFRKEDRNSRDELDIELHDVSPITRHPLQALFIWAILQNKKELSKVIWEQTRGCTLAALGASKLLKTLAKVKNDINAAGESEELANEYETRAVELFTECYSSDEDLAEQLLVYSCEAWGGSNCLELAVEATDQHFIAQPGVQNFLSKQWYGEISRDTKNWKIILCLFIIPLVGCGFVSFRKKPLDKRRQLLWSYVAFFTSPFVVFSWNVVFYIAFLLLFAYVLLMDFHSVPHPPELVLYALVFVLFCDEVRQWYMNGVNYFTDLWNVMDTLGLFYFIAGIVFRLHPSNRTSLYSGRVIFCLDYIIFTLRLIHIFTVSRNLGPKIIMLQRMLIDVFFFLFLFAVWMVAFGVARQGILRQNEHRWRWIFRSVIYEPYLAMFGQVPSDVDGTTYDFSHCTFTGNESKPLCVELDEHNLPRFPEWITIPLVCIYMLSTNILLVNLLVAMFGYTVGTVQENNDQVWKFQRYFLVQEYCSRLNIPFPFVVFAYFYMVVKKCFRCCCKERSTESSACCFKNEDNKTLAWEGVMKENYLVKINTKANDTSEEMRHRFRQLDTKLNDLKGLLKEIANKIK

On to `CC(C)[C@@H]1CC[C@@H](C)C[C@@]1(O)C(=O)NCC(NC(=O)[C@H](C)N)c1ccccc1` (single isomer, unassigned) [Example 182], for which the EC50 – broadly, the concentration at which the effect is half-maximal – at human TRPM8 [1] was determined as 3.7 nM; at pig TRPM8 [2] it was 52 nM; on pig TRPM8 [3], 3.8 nM; on human TRPM8 [4], 66 nM.
For `CC(C)[C@@H]1CC[C@@H](C)C[C@@]1(O)C(=O)NCC(CCO)c1ccccc1` (stereo partly drawn) [Example 66, (1S,2S,5R)-1-hydroxy-N-(4-hydroxy-2-phenylbutyl)-2-isopropyl-5-methylcyclohexane-1-carboxamide] the same measures were 51 nM, 6060 nM, 75 nM and 3700 nM.
As to `Cc1cccc(CCNC(=O)[C@]2(O)C[C@H](C)CC[C@H]2C(C)C)c1` [Example 58, (1S,2S,5R)-1-hydroxy-2-isopropyl-5-methyl-N-(3-methylphenethyl)cyclohexane-1-carboxamide], the EC50 stood at 5.2 nM at human TRPM8 [1], 887 nM at pig TRPM8 [2], 2.2 nM at pig TRPM8 [3] and 1030 nM on human TRPM8 [4].
Take `CC(C)[C@@H]1CC[C@@H](C)C[C@@]1(O)C(=O)NCC(=O)c1cccs1` [Example 149, (1S,2S,5R)-1-hydroxy-2-isopropyl-5-methyl-N-[2-oxo-2-(2-thienyl)ethyl]cyclohexanecarboxamide]: the EC50 is 6 nM on human TRPM8 [1], 1560 nM at pig TRPM8 [2], 2 nM at pig TRPM8 [3] and 2300 nM at human TRPM8 [4].
For `CC(C)[C@@H]1CC[C@@H](C)C[C@@]1(O)C(=O)NCCc1ccccc1CCN` [Example 53, (1S,2S,5R)—N-(2-(2-aminoethyl)phenethyl)-1-hydroxy-2-isopropyl-5-methylcyclohexane-1-carboxamide] the same measures were 2.4 nM, 326 nM, 2.6 nM and 200 nM.
In the same order, the values of `CC(C)[C@@H]1CC[C@@H](C)C[C@@]1(O)C(=O)NCC(F)c1ccccc1` (stereo partly drawn) [Example 5, (1S,2S,5R)—N-(2-fluoro-2-phenylethyl)-1-hydroxy-2-isopropyl-5-methylcyclohexane-1-carboxamide] are 1.3 nM, 478 nM, 0.7 nM and 950 nM.
For `CC(C)[C@@H]1CC[C@@H](C)C[C@@]1(O)C(=O)NC[C@H](O)c1cccc(O)c1` [Example 41, (1S,2S,5R)-1-hydroxy-N-((2R)-hydroxy-2-(3-hydroxyphenyl)ethyl)-2-isopropyl-5-methylcyclohexane-1-carboxamide] the same measures were 195 nM, 5110 nM, 74.5 nM and 1100 nM.
As for `CC(C)[C@@H]1CC[C@@H](C)C[C@@]1(O)C(=O)NCC(=O)c1ccc(F)c(F)c1` [Example 136, (1S,2S,5R)-N-[2-(3,4-difluorophenyl)-2-oxo-ethyl]-1-hydroxy-2-isopropyl-5-methyl-cyclohexanecarboxamide], the half-maximal effective concentration (EC50) came out at 2.7 nM at human TRPM8 [1], 510 nM at pig TRPM8 [2], 1.3 nM at pig TRPM8 [3] and 610 nM at human TRPM8 [4].
For `COc1cc(C=O)ccc1OC(=O)CNC(=O)[C@]1(O)C[C@H](C)CC[C@H]1C(C)C` [Example 68, 4-formyl-2-methoxyphenyl ((1S,2S,5R)-1-hydroxy-2-isopropyl-5-methylcyclohexane-1-carbonyl)glycinate] the same measures were 44 nM, 3640 nM, 32 nM and 2690 nM.
For `[2H]C(O)(CNC(=O)[C@]1(O)C[C@H](C)CC[C@H]1C(C)C)c1ccccc1` (stereo partly drawn) [Example 72, (1S,2S,5R)-1-hydroxy-N-(2-hydroxy-2-phenylethyl-2-d)-2-isopropyl-5-methylcyclohexane-1-carboxamide] the same measures were 3 nM, 790 nM, 2 nM and 1390 nM.
For `CC(C)[C@@H]1CC[C@@H](C)C[C@@]1(O)C(=O)N[C@@H]1COc2ccccc2C1` [Example 94, (1S,2S,5R)—N-((3S)-chroman-3-yl)-1-hydroxy-2-isopropyl-5-methylcyclohexane-1-carboxamide] the same measures were 6.4 nM, 1500 nM, 7.7 nM and 1070 nM.
With `CC(C)[C@@H]1CC[C@@H](C)C[C@@]1(O)C(=O)NCC(C)(O)c1ccccc1` (stereo partly drawn) [Example 164, (1S,2S,5R)-1-hydroxy-N-(2-hydroxy-2-phenyl-propyl)-2-isopropyl-5-methyl-cyclohexanecarboxamide], the EC50 on human TRPM8 [1] came to 34.3 nM; on pig TRPM8 [2], 1040 nM; on pig TRPM8 [3], 21.2 nM; on human TRPM8 [4] it was 2200 nM.
Consider `COC(=O)c1cccc(CCNC(=O)[C@]2(O)C[C@H](C)CC[C@H]2C(C)C)c1` [Example 107, methyl 3-(2-((1S,2S,5R)-1-hydroxy-2-isopropyl-5-methylcyclohexane-1-carboxamido)ethyl)benzoate], for which the EC50 at human TRPM8 [1] is 42.8 nM; at pig TRPM8 [2], 2440 nM; at pig TRPM8 [3], 21.7 nM; on human TRPM8 [4], 3800 nM.
For `CC(C)[C@@H]1CC[C@@H](C)C[C@@]1(O)C(=O)NCC(=O)Nc1ccccc1` [Example 129, (1S,2S,5R)-N-(2-anilino-2-oxo-ethyl)-1-hydroxy-2-isopropyl-5-methyl-cyclohexanecarboxamide] the same measures were 6.9 nM, 1250 nM, 2.6 nM and 3000 nM.
For `CC(C)[C@@H]1CC[C@@H](C)C[C@@]1(O)C(=O)NCCc1ccccc1O` [Example 116, (1S,2S,5R)-1-hydroxy-N-[2-(2-hydroxyphenyl)ethyl]-2-isopropyl-5-methyl-cyclohexanecarboxamide] the same measures were 3.3 nM, 504 nM, 2.5 nM and 1300 nM.
For `CC(C)[C@@H]1CC[C@@H](C)C[C@@]1(O)C(=O)NCCOC(=O)c1ccccc1` [Example 111, 2-((1S,2S,5R)-1-hydroxy-2-isopropyl-5-methylcyclohexane-1-carboxamido)ethyl benzoate] the same measures were 72.7 nM, 5070 nM, 25.1 nM and 5100 nM.
As for `COc1ccc(CCNC(=O)[C@]2(O)C[C@H](C)CC[C@H]2C(C)C)cc1OC` [Example 113, (1S,2S,5R)-N-[2-(3,4-dimethoxyphenyl)ethyl]-1-hydroxy-2-isopropyl-5-methyl-cyclohexanecarboxamide], the EC50 at human TRPM8 [1] came to 99.4 nM; at pig TRPM8 [2], 9640 nM; on pig TRPM8 [3], 93.5 nM; on human TRPM8 [4] it was 1400 nM.
For `CC(C)[C@@H]1CC[C@@H](C)C[C@@]1(O)C(=O)NCCc1ccccc1OCC[N+](C)(C)C` [Example 11, 2-(2-(2-((1S,2S,5R)-1-hydroxy-2-isopropyl-5-methylcyclohexane-1-carboxamido)ethyl)phenoxy)-N,N,N-trimethylethan-1-aminium iodide] the same measures were 148 nM, 4900 nM, 298 nM and 3700 nM.
In the same order, the values of `CC(C)[C@@H]1CC[C@@H](C)C[C@@]1(O)C(=O)NC[C@@H](O)c1cccc(O)c1` [Example 42, (1S,2S,5R)-1-hydroxy-N-((2S)-hydroxy-2-(3-hydroxyphenyl)ethyl)-2-isopropyl-5-methylcyclohexane-1-carboxamide] are 12.4 nM, 921 nM, 3.8 nM and 910 nM.
